The text below walks through data of patent publication US10196373B2, “Substituted 2-hydroxy-4-(2-(phenylsulfonamido)acetamido)benzoic acid analogs as inhibitors of STAT protein” (University of Central Florida Research Foundation, Inc., priority 2010, dated 2019).

In this experiment the target is STAT3 (Homo sapiens (Human), UniProt P40763). The experiment is described as follows: Fluorescence polarization assay, inhibition of binding to STAT3. To be noted: inhibition of binding to STAT3 in a fluorescence polarization assay; read-out: Ki (FP). As to the method: The fluorescent polarization experiments were performed on an Infinite M1000 (Tecan, Crailsheim, Germany). All assays were performed in the same buffer conditions of 50 mM NaCl, 10 mM Hepes, pH 7.5, 1 mM EDTA, and 2 mM dithiothreitol. Fluorescent-labelled peptides were kept at a final concentration of 10nM in buffered solution. […] of labelled peptides were added to […] of a 300 nM STAT3 protein solution (provided by SignalChem in 50 mM Tris-HCl, pH 7.5, 150 mM NaCl, 0.25 mM DTT, 0.1 mM PMSF, 25% glycerol and stored at −80° C.). Inhibitory molecules were dissolved in pure DMSO and diluted using buffer solution to produce four final concentrations ([…]). 7.5 μL of the inhibitory molecule solution was mixed with the STAT3 protein and labelled peptide solution in black 384-flat well microplates (Coming), and incubated for 15-30 minutes. The M1000 performed a shaking cycle and then read the plates. IC50′s were derived from the output using the curve-fitting software OriginPro 8 (Northampton, MA). The FP data was modelled by the following equation:
[formula] where X was the concentration of inhibitor and ρwas the corresponding fluorescence at that concentration. The free parameter was half the maximal inhibitory concentration (IC50) and the limiting values was the maximal measured fluorescence polarization (ρ1) and the minimal fluorescence polarization (ρ2). Origin curve fitting software utilizes the Levenberg-Marquardt algorithm and reduced chi-square criterion for convergence. The inhibitor dissociation constant, Ki, was calculated from the derived IC50 values, as per the following formula: […]
Further details of the fluorescence polarization assay are as described previously (Zhang X, et al. (2010) A novel small-molecule disrupts Stat3 SH2domainphosphotyrosine interactions and Stat3-dependent tumor processes. Biochem Pharmacol 79: 1398-1409).

Sequence of STAT3 (P40763 whole entry): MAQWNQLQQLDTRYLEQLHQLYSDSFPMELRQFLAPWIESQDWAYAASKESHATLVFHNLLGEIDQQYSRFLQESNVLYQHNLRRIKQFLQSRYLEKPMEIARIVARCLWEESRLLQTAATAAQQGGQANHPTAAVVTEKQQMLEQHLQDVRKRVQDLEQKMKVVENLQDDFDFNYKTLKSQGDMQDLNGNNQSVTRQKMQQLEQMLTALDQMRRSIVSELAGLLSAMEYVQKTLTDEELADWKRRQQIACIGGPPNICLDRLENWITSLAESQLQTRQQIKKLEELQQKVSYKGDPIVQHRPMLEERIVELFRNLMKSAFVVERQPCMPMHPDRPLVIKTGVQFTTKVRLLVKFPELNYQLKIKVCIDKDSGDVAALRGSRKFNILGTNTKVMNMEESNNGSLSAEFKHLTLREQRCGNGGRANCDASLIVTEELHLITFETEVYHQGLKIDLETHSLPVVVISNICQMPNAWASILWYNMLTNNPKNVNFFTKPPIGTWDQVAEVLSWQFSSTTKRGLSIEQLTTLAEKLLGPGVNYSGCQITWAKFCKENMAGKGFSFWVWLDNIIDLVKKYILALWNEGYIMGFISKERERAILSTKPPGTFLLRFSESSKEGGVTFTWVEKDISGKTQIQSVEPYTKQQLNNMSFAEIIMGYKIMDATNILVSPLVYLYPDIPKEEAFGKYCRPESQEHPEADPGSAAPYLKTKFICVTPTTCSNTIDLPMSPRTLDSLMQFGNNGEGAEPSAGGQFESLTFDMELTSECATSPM

As to `Cc1ccc(S(=O)(=O)N(CC(=O)N(Cc2ccc(C3CCCCC3)cc2)c2ccc(C(=O)O)c(O)c2)Cc2ccc(C#N)cc2)cc1` [BP3-021], the Ki is 4.3 ± 0.7 µM. In the case of `Cc1ccc(S(=O)(=O)N(CC(=O)N(Cc2ccc(C3CCCCC3)cc2)c2ccc(C(=O)O)c(O)c2)Cc2ccccn2)cc1` [BP2-131], the Ki was 22.6 ± 3 µM. In the case of `Cc1ccc(S(=O)(=O)N(CC(=O)N(Cc2ccc(C3CCCCC3)cc2)c2ccc(C(=O)O)c(O)c2)Cc2ccc(OC(F)(F)F)cc2)cc1` [XW1-077] it was 5.9 ± 0.6 µM; in that of `Cc1ccc(S(=O)(=O)N(CC(=O)N(Cc2ccc(C3CCCCC3)cc2)c2ccc(C(=O)O)c(O)c2)Cc2c(F)c(F)c(F)c(F)c2F)cc1` [BP2-068], 4.5 ± 1.9 µM. On to `Cc1ccc(S(=O)(=O)N(CC(=O)N(Cc2ccc(C3CCCCC3)cc2)c2ccc(C(=O)O)c(O)c2)Cc2ccccc2C#N)cc1` [BP3-024], for which the Ki amounted to 11.3 ± 0.8 µM. `Cc1ccc(S(=O)(=O)N(CC(=O)N(Cc2ccc(C3CCCCC3)cc2)c2ccc(C(=O)O)c(O)c2)Cc2ccc(C(F)(F)F)cc2)cc1` [XW1-059]: the Ki amounted to 4.6 ± 1.6 µM. Next, `Cc1ccc(S(=O)(=O)N(CC(N)=O)CC(=O)N(Cc2ccc(C3CCCCC3)cc2)c2ccc(C(=O)O)c(O)c2)cc1` [BP2-124]: 48.7 ± 14.2 µM; `Cc1ccc(S(=O)(=O)N(CC(=O)N(Cc2ccc(C3CCCCC3)cc2)c2ccc(C(=O)O)c(O)c2)Cc2ccccc2C)cc1` [BP2-047]: 2.6 ± 0.2 µM. Next, `Cc1ccc(S(=O)(=O)N(CC(=O)N(Cc2ccc(C3CCCCC3)cc2)c2ccc(C(=O)O)c(O)c2)Cc2cccc(Cl)c2)cc1` [SH3-077]: 3 ± 4.1 µM; `Cc1ccc(S(=O)(=O)N(CC(=O)N(Cc2ccc(C3CCCCC3)cc2)c2ccc(C(=O)O)c(O)c2)Cc2ccccc2)cc1` [BP2-027]: 7.2 ± 2.2 µM. In the case of `Cc1ccc(S(=O)(=O)N(CC(=O)N(Cc2ccc(C3CCCCC3)cc2)c2ccc(C(=O)O)c(O)c2)CC(C)C)cc1` [BP2-046] it was 8.3 ± 0.3 µM; in that of `Cc1ccc(S(=O)(=O)N2CCC[C@@H]2C(=O)N(Cc2ccc(C3CCCCC3)cc2)c2ccc(C(=O)O)c(O)c2)cc1` [BP2-032], more than 50 µM; in that of `Cc1ccc(S(=O)(=O)N(CC(=O)N(Cc2ccc(C3CCCCC3)cc2)c2ccc(C(=O)O)c(O)c2)Cc2ccccc2N)cc1` [BP3-018], 12 ± 0.5 µM. For `Cc1ccc(S(=O)(=O)N(CC(=O)N(Cc2ccc(C3CCCCC3)cc2)c2ccc(C(=O)O)c(O)c2)Cc2ccc(F)cc2)cc1` [BP2-065], the inhibition constant (Ki) was 3.8 ± 1.6 µM.

On to `Cc1ccc(S(=O)(=O)N(CC(=O)N(Cc2ccc(C3CCCCC3)cc2)c2ccc(C(=O)O)c(O)c2)Cc2ccccc2OC(F)(F)F)cc1` [XW1-061], for which the Ki stood at 3.6 ± 0.5 µM. On to `Cc1ccc(S(=O)(=O)N(CC(=O)N(Cc2ccc(C3CCCCC3)cc2)c2ccc(C(=O)O)c(O)c2)Cc2cccc(C(F)(F)F)c2)cc1` [XW1-079], for which the inhibition constant (Ki) was determined as 5.1 ± 0.4 µM. For the molecule `Cc1ccc(S(=O)(=O)N(CC(=O)N(Cc2ccc(C3CCCCC3)cc2)c2ccc(C(=O)O)c(O)c2)Cc2cccc(C#N)c2)cc1` [BP3-023], the inhibitory constant (Ki) came to 6.2 ± 0.8 µM.

On to `Cc1ccc(S(=O)(=O)N(CC(=O)N(Cc2ccc(C3CCCCC3)cc2)c2ccc(C(=O)O)c(O)c2)Cc2ccccc2C(F)(F)F)cc1` [BP2-061], for which the Ki was 1.8 ± 2.3 µM. Next, `Cc1ccc(S(=O)(=O)N(CC(=O)N(Cc2ccc(C3CCCCC3)cc2)c2ccc(C(=O)O)c(O)c2)Cc2c(F)cc(F)c(F)c2F)cc1` [BP2-119]: 7.7 ± 1 µM; `Cc1ccc(S(=O)(=O)N(CC(=O)N(Cc2ccc(C3CCCCC3)cc2)c2ccc(C(=O)O)c(O)c2)Cc2ccc3ccccc3c2)cc1` [BP2-057]: 2.5 ± 1 µM.

Turning to `COC(=O)c1cccc(CN(CC(=O)N(Cc2ccc(C3CCCCC3)cc2)c2ccc(C(=O)O)c(O)c2)S(=O)(=O)c2ccc(C)cc2)c1` [XW1-081], the Ki stood at 9.2 ± 0.8 µM.

For the molecule `Cc1ccc(S(=O)(=O)N(CC(=O)N(Cc2ccc(C3CCCCC3)cc2)c2ccc(C(=O)O)c(O)c2)Cc2ccccc2Cl)cc1` [SH3-079], the Ki stood at 7.9 ± 0.3 µM. As for `Cc1ccc(S(=O)(=O)N(CC(=O)N(Cc2ccc(C3CCCCC3)cc2)c2ccc(C(=O)O)c(O)c2)Cc2c(F)c(F)cc(F)c2F)cc1` [BP2-121], the Ki was 11.4 ± 0.4 µM. Next, `CCOC(=O)c1ccc(CN(CC(=O)N(Cc2ccc(C3CCCCC3)cc2)c2ccc(C(=O)O)c(O)c2)S(=O)(=O)c2ccc(C)cc2)cc1` [XW1-053]: 3.8 ± 1.5 µM; `Cc1ccc(S(=O)(=O)N(CC(=O)N(Cc2ccc(C3CCCCC3)cc2)c2ccc(C(=O)O)c(O)c2)Cc2cccc([N+](=O)[O-])c2)cc1` [BP3-019]: 2.5 ± 2.2 µM. As for `COC(=O)c1ccc(CN(CC(=O)N(Cc2ccc(C3CCCCC3)cc2)c2ccc(C(=O)O)c(O)c2)S(=O)(=O)c2ccc(C)cc2)cc1` [XW1-083], the inhibitory constant (Ki) amounted to 5.8 ± 0.6 µM.

For `Cc1ccc(S(=O)(=O)N(C)CC(=O)N(Cc2ccc(C3CCN(C(=O)OC(C)(C)C)CC3)cc2)c2ccc(C(=O)O)c(O)c2)cc1` [Compound 27KC, 4-(N-(4-(1-(tert-butoxycarbonyl)piperidin-4-yl)benzyl)-2-(N,4-dimethylphenylsulfon-amido)acetamido)-2-hydroxybenzoic acid], the Ki stood at 18.7 ± 1.4 µM. For the molecule `Cc1ccc(S(=O)(=O)N(CC(=O)N(Cc2ccc(C3CCCCC3)cc2)c2ccc(C(=O)O)c(O)c2)Cc2cc(F)c(F)c(F)c2F)cc1` [BP2-120], the Ki turned out to be 11.1 ± 0.6 µM.

On to `Cc1ccc(S(=O)(=O)N(CC(=O)N(Cc2ccc(C3CCCCC3)cc2)c2ccc(C(=O)O)c(O)c2)Cc2ccccc2F)cc1` [BP2-067], for which the Ki worked out at 5.3 ± 0.3 µM. As for `Cc1ccc(S(=O)(=O)N(CC(=O)N(Cc2ccc(C3CCCCC3)cc2)c2ccc(C(=O)O)c(O)c2)Cc2ccncc2)cc1` [BP2-086], the Ki was 23.3 ± 0.7 µM. Regarding `Cc1ccc(CN(CC(=O)N(Cc2ccc(C3CCCCC3)cc2)c2ccc(C(=O)O)c(O)c2)S(=O)(=O)c2ccc(C)cc2)cc1` [BP2-028], the Ki is more than 50 µM. In the case of `Cc1ccc(S(=O)(=O)N(CC(=O)N(Cc2ccc(C3CCCCC3)cc2)c2ccc(C(=O)O)c(O)c2)Cc2cccnc2)cc1` [BP2-130] it was 25.4 ± 0.8 µM; in that of `Cc1ccc(S(=O)(=O)N(CC(=O)N(Cc2ccc(C3CCCCC3)cc2)c2ccc(C(=O)O)c(O)c2)Cc2ccccc2[N+](=O)[O-])cc1` [BP3-020], 5 ± 6.5 µM. Next, `C=CCN(CC(=O)N(Cc1ccc(C2CCCCC2)cc1)c1ccc(C(=O)O)c(O)c1)S(=O)(=O)c1ccc(C)cc1` [BP2-125]: 27.9 ± 5 µM.

As to `Cc1ccc(S(=O)(=O)N(CC(=O)N(Cc2ccc(C3CCCCC3)cc2)c2ccc(C(=O)O)c(O)c2)Cc2cccc(F)c2)cc1` [BP2-066], the inhibitory constant (Ki) is 4.4 ± 0.3 µM. On to `CCCN(CC(=O)N(Cc1ccc(C2CCCCC2)cc1)c1ccc(C(=O)O)c(O)c1)S(=O)(=O)c1ccc(C)cc1` [BP2-033], for which the Ki was 8.9 ± 1.4 µM. As for `Cc1ccc(S(=O)(=O)N(CC(=O)N(Cc2ccc(C3CCCCC3)cc2)c2ccc(C(=O)O)c(O)c2)Cc2ccc(SC(F)(F)F)cc2)cc1` [XW1-057], the inhibition constant Ki was determined as 4.8 ± 0.6 µM. Next, `Cc1ccc(S(=O)(=O)N(CC(=O)N(Cc2ccc(C3CCCCC3)cc2)c2ccc(C(=O)O)c(O)c2)Cc2cccc(N)c2)cc1` [BP3-016]: 6.2 ± 1.6 µM. Next, `Cc1ccc(S(=O)(=O)N(CC(=O)N(Cc2ccc(C3CCCCC3)cc2)c2ccc(C(=O)O)c(O)c2)Cc2ccc(Cl)cc2)cc1` [SH3-076]: 3.1 ± 0.1 µM. Next, `Cc1ccc(S(=O)(=O)N2CCC[C@H]2C(=O)N(Cc2ccc(C3CCCCC3)cc2)c2ccc(C(=O)O)c(O)c2)cc1` [BP2-029]: 33 ± 22 µM; `Cc1ccc(S(=O)(=O)N(CC(=O)N(Cc2ccc(C3CCCCC3)cc2)c2ccc(C(=O)O)c(O)c2)Cc2cccc(C)c2)cc1` [BP2-056]: 2.6 ± 0.2 µM; `Cc1ccc(S(=O)(=O)N(CC(=O)N(Cc2ccc(C3CCCCC3)cc2)c2ccc(C(=O)O)c(O)c2)Cc2ccc(F)cc2C(F)(F)F)cc1` [XW1-075]: 5.5 ± 0.4 µM. Turning to `Cc1ccc(S(=O)(=O)N(CC(=O)N(Cc2ccc(C3CCCCC3)cc2)c2ccc(C(=O)O)c(O)c2)Cc2cccc(OC(F)(F)F)c2)cc1` [XW1-055], the Ki came out at 4 ± 1.1 µM. As for `Cc1ccc(S(=O)(=O)N(CC(=O)N(Cc2ccc(C3CCCCC3)cc2)c2ccc(C(=O)O)c(O)c2)Cc2ccc([N+](=O)[O-])cc2)cc1` [BP3-014], the Ki worked out at 5.5 ± 3.7 µM.
